Each block holds one compound with its values, some of them ahead of it.
Assays:
[1] = biological target: T1, Tyrosine-protein kinase JAK3 (Homo sapiens, UniProt P52333)
T1 sequence (P52333 whole entry): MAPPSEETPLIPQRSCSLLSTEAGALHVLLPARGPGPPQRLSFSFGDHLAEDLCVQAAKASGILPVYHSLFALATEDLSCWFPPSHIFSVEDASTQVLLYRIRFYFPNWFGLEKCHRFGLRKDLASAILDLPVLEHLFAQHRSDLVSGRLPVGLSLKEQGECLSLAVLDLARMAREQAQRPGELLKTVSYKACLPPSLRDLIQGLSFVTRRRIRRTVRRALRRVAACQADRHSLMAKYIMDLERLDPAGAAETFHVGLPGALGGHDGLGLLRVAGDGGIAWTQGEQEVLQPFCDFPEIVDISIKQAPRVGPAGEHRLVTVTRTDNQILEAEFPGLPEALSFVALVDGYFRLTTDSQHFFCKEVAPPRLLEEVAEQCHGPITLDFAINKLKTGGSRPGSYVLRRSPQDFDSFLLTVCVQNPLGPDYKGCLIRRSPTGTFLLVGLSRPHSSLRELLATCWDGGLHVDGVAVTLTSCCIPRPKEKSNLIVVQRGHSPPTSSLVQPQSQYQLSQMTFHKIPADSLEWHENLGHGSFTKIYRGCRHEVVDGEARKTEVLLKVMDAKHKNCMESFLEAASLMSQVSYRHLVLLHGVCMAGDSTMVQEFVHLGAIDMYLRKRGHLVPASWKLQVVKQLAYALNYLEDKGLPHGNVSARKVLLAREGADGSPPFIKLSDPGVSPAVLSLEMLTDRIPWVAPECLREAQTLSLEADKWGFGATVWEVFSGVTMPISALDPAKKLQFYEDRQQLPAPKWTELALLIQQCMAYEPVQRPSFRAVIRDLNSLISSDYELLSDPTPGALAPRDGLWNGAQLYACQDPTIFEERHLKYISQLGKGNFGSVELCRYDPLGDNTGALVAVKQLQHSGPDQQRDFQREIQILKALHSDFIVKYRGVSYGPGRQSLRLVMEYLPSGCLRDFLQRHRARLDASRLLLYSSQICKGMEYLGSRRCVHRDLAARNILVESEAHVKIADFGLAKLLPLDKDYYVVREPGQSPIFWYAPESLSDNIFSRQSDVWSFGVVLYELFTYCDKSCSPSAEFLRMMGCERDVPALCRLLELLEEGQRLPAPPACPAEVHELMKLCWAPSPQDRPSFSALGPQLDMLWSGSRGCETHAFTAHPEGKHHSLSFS
Description: Inhibition of recombinant human N-terminal His-tagged JAK3 (795 to 1124 residues) expressed in baculovirus expression system using Ulight-Poly GT as substrate incubated for 2 hrs by Lanthascreen TR-FRET assay

[2] = biological target: Non-receptor tyrosine-protein kinase TYK2 (Homo sapiens, UniProt P29597); experiment: Inhibition of recombinant human N-terminal GST-tagged TYK2 (871 to 1187 residues) expressed in baculovirus expression system using Ulight-Poly GT as substrate incubated for 2 hrs by Lanthascreen TR-FRET assay
Non-receptor tyrosine-protein kinase TYK2, sequence (P29597 whole entry, the tested form may be a part): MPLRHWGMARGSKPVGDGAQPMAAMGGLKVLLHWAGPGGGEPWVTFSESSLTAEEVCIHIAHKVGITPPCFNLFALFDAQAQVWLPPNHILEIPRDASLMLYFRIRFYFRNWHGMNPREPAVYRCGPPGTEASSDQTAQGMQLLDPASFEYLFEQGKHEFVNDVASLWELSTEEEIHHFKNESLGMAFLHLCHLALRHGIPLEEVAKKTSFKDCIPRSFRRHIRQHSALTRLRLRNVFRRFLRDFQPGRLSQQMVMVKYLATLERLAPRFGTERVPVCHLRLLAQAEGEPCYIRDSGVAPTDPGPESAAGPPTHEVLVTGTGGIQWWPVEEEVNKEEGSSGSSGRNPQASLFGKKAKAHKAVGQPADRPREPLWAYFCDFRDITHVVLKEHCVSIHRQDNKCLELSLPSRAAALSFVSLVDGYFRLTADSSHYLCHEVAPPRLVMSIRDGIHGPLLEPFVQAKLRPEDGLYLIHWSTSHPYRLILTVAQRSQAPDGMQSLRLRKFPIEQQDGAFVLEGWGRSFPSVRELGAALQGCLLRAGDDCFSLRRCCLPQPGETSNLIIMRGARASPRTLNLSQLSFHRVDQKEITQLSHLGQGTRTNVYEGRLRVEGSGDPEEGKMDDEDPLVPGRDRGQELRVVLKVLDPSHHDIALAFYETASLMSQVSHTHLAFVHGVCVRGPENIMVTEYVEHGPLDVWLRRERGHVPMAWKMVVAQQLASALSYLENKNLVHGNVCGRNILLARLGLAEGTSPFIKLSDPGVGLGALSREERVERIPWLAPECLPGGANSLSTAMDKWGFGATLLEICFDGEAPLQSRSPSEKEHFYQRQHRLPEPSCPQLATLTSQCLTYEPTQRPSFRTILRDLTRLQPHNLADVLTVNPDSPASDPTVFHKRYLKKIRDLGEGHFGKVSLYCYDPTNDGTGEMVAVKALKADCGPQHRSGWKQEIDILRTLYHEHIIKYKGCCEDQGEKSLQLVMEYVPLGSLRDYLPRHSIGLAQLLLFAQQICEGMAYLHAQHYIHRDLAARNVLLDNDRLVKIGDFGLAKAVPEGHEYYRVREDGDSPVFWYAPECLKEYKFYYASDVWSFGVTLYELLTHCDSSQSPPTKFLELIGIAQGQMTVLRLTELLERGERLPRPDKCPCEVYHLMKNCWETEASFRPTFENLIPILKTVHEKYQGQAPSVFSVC

[3] = tested on: HEL; experiment: cells; conditions: Homo sapiens, 72 h
Description: Antiproliferative activity against human HEL cells assessed as reduction in cell viability incubated for 72 hrs by CCK-8 assay

[4] = in vitro; conditions: human, liver microsomes
Description: Metabolic stability in human liver microsomes assessed as compound remaining at 0.2 uM incubated for 60 mins by UPLC-MS/MS analysis

[5] = biological target: Tyrosine-protein kinase JAK1 (Homo sapiens, UniProt P23458); experiment: Inhibition of recombinant human N-terminal GST-tagged JAK1 (850 to 1154 residues) expressed in baculovirus expression system using Ulight-Poly GT as substrate incubated for 2 hrs by Lanthascreen TR-FRET assay
Tyrosine-protein kinase JAK1, sequence (P23458 whole entry, the tested form may be a part): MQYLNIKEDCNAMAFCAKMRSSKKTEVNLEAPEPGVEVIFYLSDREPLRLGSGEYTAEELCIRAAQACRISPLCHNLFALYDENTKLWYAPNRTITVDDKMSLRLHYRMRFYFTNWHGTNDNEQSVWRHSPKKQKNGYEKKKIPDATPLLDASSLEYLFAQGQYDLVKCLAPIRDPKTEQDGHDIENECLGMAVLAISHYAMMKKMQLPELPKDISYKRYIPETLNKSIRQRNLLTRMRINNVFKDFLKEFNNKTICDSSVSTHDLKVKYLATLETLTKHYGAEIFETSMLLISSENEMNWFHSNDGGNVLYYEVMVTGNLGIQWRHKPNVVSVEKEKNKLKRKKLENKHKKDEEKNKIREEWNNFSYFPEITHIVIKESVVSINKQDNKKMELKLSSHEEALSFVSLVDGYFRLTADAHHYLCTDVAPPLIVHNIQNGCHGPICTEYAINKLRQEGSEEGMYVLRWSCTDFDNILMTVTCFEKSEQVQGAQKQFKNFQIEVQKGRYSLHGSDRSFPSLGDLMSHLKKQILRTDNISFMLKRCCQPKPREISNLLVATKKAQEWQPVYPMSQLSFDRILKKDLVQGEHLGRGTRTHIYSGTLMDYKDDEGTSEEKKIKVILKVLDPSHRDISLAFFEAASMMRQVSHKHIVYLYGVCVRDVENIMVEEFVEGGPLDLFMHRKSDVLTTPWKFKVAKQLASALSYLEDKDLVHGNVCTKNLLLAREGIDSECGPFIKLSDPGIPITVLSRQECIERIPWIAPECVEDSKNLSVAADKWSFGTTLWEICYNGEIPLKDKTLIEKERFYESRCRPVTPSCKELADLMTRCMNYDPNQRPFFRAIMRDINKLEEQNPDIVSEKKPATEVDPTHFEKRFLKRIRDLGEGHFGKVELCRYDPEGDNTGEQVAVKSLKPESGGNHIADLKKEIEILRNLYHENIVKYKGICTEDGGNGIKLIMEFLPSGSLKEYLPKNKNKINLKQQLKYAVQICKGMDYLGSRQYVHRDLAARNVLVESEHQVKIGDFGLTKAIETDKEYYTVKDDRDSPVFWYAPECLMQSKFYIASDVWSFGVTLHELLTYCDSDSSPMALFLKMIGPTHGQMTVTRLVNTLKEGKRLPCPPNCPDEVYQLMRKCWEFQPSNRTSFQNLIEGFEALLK

[6] = species: Homo sapiens; experiment: Selectivity index, ratio of IC50 for recombinant human N-terminal His-tagged JAK2 (826 to 1132 residues) expressed in baculovirus expression system to IC50 for recombinant human N-terminal His-tagged JAK3 (795 to 1124 residues) expressed in baculovirus expression system
[7] = tested on: JeKo-1; experiment: cells; conditions: Homo sapiens, JeKo-1, 72 h
Description: Antiproliferative activity against human JeKo1 cells assessed as reduction in cell viability incubated for 72 hrs by CCK-8 assay

[8] = tested on: OCI-Ly10; experiment: cells; conditions: Homo sapiens, OCI-Ly10, 72 h
Description: Antiproliferative activity against human OCI-LY10 cells assessed as reduction in cell viability incubated for 72 hrs by CCK-8 assay

[9] = in vitro; conditions: human, liver microsomes; remark: listed apart in the source
[10] = in vitro; conditions: human, liver microsomes; remark: listed apart in the source
[11] = species: Homo sapiens; experiment: Selectivity index, ratio of IC50 for recombinant human N-terminal GST-tagged JAK1 (850 to 1154 residues) expressed in baculovirus expression system to IC50 for recombinant human N-terminal His-tagged JAK3 (795 to 1124 residues) expressed in baculovirus expression system
[12] = biological target: Tyrosine-protein kinase BTK (Homo sapiens, UniProt Q06187)
Tyrosine-protein kinase BTK, sequence (Q06187 whole entry): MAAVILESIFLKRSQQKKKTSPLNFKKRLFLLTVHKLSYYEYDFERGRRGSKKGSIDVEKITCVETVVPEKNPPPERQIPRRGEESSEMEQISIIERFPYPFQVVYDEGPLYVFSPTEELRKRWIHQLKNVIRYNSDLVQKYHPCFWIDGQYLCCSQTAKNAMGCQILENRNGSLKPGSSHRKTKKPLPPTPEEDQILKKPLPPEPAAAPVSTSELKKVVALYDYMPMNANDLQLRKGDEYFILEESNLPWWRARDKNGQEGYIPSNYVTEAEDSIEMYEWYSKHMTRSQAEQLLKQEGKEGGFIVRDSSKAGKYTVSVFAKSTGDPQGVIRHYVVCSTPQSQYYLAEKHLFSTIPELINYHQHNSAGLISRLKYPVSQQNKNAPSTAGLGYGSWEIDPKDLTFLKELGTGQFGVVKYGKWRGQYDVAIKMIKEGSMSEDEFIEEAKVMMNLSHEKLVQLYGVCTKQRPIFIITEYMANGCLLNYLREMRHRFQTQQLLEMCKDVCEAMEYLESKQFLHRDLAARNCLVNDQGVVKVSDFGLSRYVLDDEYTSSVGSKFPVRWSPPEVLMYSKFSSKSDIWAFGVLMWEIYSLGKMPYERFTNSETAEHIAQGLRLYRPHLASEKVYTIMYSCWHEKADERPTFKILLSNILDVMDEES
Description: Inhibition of recombinant human His-tagged full length BTK expressed in baculovirus expression system using Ulight-Poly GT as substrate incubated for 2 hrs by Lanthascreen TR-FRET assay

[13] = biological target: Tyrosine-protein kinase JAK2 (Homo sapiens, UniProt O60674)
Tyrosine-protein kinase JAK2, sequence (O60674 whole entry): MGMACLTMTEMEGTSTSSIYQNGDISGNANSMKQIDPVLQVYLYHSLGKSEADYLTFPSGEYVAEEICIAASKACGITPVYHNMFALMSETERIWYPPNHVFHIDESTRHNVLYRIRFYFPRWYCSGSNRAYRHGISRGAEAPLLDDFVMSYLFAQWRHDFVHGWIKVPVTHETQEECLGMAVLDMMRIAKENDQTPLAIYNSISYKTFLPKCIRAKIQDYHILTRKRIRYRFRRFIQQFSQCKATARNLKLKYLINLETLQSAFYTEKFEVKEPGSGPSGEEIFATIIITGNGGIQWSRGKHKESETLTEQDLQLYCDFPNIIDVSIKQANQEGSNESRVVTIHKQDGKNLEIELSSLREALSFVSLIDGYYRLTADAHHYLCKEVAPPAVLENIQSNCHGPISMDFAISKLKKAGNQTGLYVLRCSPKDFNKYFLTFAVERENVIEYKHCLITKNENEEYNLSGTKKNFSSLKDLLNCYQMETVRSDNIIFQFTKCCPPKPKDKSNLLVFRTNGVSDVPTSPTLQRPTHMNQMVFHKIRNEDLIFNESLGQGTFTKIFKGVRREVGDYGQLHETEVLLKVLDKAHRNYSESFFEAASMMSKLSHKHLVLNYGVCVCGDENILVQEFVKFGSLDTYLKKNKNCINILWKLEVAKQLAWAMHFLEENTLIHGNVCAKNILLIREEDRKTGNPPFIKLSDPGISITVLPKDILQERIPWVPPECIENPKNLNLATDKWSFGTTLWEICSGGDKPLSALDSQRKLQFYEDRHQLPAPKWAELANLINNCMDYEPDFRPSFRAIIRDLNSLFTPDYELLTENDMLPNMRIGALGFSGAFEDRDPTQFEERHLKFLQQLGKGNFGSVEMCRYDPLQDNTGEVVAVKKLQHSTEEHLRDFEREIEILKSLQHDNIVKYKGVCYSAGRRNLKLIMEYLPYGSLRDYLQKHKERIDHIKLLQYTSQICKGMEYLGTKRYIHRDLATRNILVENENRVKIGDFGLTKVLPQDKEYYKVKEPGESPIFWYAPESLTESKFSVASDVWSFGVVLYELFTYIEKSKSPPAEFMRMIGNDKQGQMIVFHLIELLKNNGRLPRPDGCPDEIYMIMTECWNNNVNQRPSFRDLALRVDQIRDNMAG
Description: Inhibition of recombinant human N-terminal His-tagged JAK2 (826 to 1132 residues) expressed in baculovirus expression system using Ulight-Poly GT as substrate incubated for 2 hrs by Lanthascreen TR-FRET assay

[14] = tested on: Raji; experiment: cells; conditions: Homo sapiens, 72 h
Description: Antiproliferative activity against human Raji cells assessed as reduction in cell viability incubated for 72 hrs by CCK-8 assay

[15] = tested on: Ramos; experiment: cells; conditions: Homo sapiens, 72 h
Description: Antiproliferative activity against human Ramos cells assessed as reduction in cell viability incubated for 72 hrs by CCK-8 assay

[16] = species: Homo sapiens; experiment: Selectivity index, ratio of IC50 for recombinant human N-terminal GST-tagged TYK2 (871 to 1187 residues) expressed in baculovirus expression system to IC50 for recombinant human N-terminal His-tagged JAK3 (795 to 1124 residues) expressed in baculovirus expression system

SMILES: C=CC(=O)Nc1cccc(Nc2nc(Nc3ccc4c(c3)B(O)OCC4)ncc2C(F)(F)F)c1
- IC50 [1]: 1.5 nM
- IC50 [2]: > 1000 nM
- IC50 [5]: > 1000 nM
- Ratio IC50 [6]: > 1000
- Ratio IC50 [11]: > 1000
- IC50 [12]: 1.9 nM
- IC50 [13]: > 1000 nM
- Ratio IC50 [16]: > 1000

SMILES: C=CC(=O)Nc1ccc(OC)c(Nc2nc(Nc3ccc4c(c3)B(O)OC4)ncc2C(F)(F)F)c1
- IC50 [12]: > 1000 nM

SMILES: C=CC(=O)Nc1cccc(Nc2nc(Nc3cc4c(cc3F)COB4O)ncc2C(F)(F)F)c1
- IC50 [12]: 156 nM

SMILES: C=CC(=O)Nc1cccc(Oc2nc(Nc3ccc4c(c3)COB4O)ncc2OC)c1
- IC50 [1]: 0.8 nM
- IC50 [2]: > 1000 nM
- IC50 [5]: > 1000 nM
- Ratio IC50 [6]: > 1000
- Ratio IC50 [11]: > 1000
- IC50 [12]: 1.7 nM
- IC50 [13]: > 1000 nM
- Ratio IC50 [16]: > 1000

SMILES: C=CC(=O)Nc1cccc(Nc2nc(NNc3ccccc3)ncc2C(F)(F)F)c1
- IC50 [12]: > 1000 nM

SMILES: C=CC(=O)Nc1cccc(Nc2nc(Nc3cccc4c3B(O)OC4)ncc2C(F)(F)F)c1
- IC50 [12]: 268 nM

SMILES: C=CC(=O)Nc1cccc(Nc2nc(Nc3cccc4c3COB4O)ncc2C(F)(F)F)c1
- IC50 [12]: 63 nM

SMILES: C=CC(=O)Nc1cccc(Nc2nc(Nc3ccc4c(c3)B(O)OC4(C)C)ncc2C(F)(F)F)c1
- IC50 [1]: 1 nM
- IC50 [2]: > 1000 nM
- IC50 [5]: > 1000 nM
- Ratio IC50 [6]: > 1000
- Ratio IC50 [11]: > 1000
- IC50 [12]: 2 nM
- IC50 [13]: > 1000 nM
- Ratio IC50 [16]: > 1000

SMILES: C=CC(=O)Nc1cccc(Nc2nc(Oc3ccc4c(c3)B(O)OC4)ncc2C(F)(F)F)c1
- IC50 [12]: > 1000 nM

SMILES: C=CC(=O)N1CCCC(Nc2nc(Nc3ccc4c(c3)COB4O)ncc2C(F)(F)F)C1 (centres undefined)
- IC50 [12]: 36.8 nM

SMILES: C=CC(=O)Nc1cccc(Oc2nc(Nc3ccc4c(c3)COB4O)ncc2C(F)(F)F)c1
- IC50 [12]: 6.5 nM

SMILES: CN(C)C/C=C/C(=O)Nc1cccc(Nc2nc(Nc3ccc4c(c3)COB4O)ncc2C(F)(F)F)c1
- IC50 [12]: 11.8 nM

Next, values leading:

- IC50 [1]: 0.5 nM
- IC50 [2]: > 1000 nM
- IC50 [3]: 5100 nM
- remaining at 1 h, 0.2 µM [4]: 45%
- IC50 [5]: > 1000 nM
- Ratio IC50 [6]: > 1000
- IC50 [7]: 1200 nM
- IC50 [8]: > 10000 nM
- microsomal CLint at 1 h, 0.2 µM [9]: 24.8 µL/min/mg
- half-life at 1 h, 0.2 µM [10]: 55.9 min
- Ratio IC50 [11]: > 1000
- IC50 [12]: 2.9 nM
- IC50 [13]: 972 nM
- IC50 [14]: 6800 nM
- IC50 [15]: 2300 nM
- Ratio IC50 [16]: > 1000
SMILES: C=CC(=O)Nc1cccc(Nc2nc(Nc3ccc4c(c3)B(O)OC4)ncc2C(F)(F)F)c1

- IC50 [1]: 0.3 nM
- IC50 [2]: > 1000 nM
- IC50 [5]: > 1000 nM
- Ratio IC50 [6]: > 1000
- Ratio IC50 [11]: > 1000
- IC50 [12]: 1.5 nM
- IC50 [13]: 891 nM
- Ratio IC50 [16]: > 1000
SMILES: C=CC(=O)Nc1cccc(Nc2nc(Nc3ccc(B(O)O)cc3)ncc2C(F)(F)F)c1

- IC50 [12]: 6.1 nM
SMILES: C=CC(=O)Nc1cccc(Nc2nc(Nc3ccc4c(c3)B(O)OC4)ncc2C)c1

- IC50 [12]: 4.7 nM
SMILES: C=CC(=O)Nc1cccc(Nc2nc(Nc3ccc4c(c3)B(O)OC4)ncc2Cl)c1

- IC50 [12]: 6.5 nM
SMILES: C=CC(=O)Nc1cccc(Nc2nc(Nc3cccc(B(O)O)c3)ncc2C(F)(F)F)c1

- IC50 [1]: 8.5 nM
- IC50 [3]: 5300 nM
- remaining at 1 h, 0.2 µM [4]: 38.8%
- IC50 [5]: > 1000 nM
- IC50 [7]: 1300 nM
- IC50 [8]: > 10000 nM
- microsomal CLint at 1 h, 0.2 µM [9]: 31.9 µL/min/mg
- half-life at 1 h, 0.2 µM [10]: 43.4 min
- IC50 [13]: 534 nM
- IC50 [14]: 17600 nM
- IC50 [15]: 3900 nM
SMILES: C=CC(=O)Nc1cccc(Nc2nc(Nc3ccc(OCCOC)cc3)ncc2F)c1 [SPEBRUTINIB]

- IC50 [1]: 0.4 nM
- IC50 [2]: > 1000 nM
- IC50 [3]: 1100 nM
- remaining at 1 h, 0.2 µM [4]: 47.2%
- IC50 [5]: > 1000 nM
- Ratio IC50 [6]: > 1000
- IC50 [7]: 500 nM
- IC50 [8]: 1000 to 10000 nM
- microsomal CLint at 1 h, 0.2 µM [9]: 23.6 µL/min/mg
- half-life at 1 h, 0.2 µM [10]: 58.8 min
- Ratio IC50 [11]: > 1000
- IC50 [12]: 0.6 nM
- IC50 [13]: 658 nM
- IC50 [14]: 1700 nM
- IC50 [15]: 500 nM
- Ratio IC50 [16]: > 1000
SMILES: C=CC(=O)Nc1cccc(Nc2nc(Nc3ccc4c(c3)COB4O)ncc2C(F)(F)F)c1

- IC50 [12]: 8.5 nM
SMILES: C=CC(=O)Nc1cccc(Nc2nc(Nc3ccc4c(c3)B(O)OC4)ncc2F)c1

- IC50 [12]: 8.2 nM
SMILES: C=CC(=O)Nc1cccc(Nc2nc(Nc3ccc4c(c3)COB4O)ncc2OC)c1

— ChEMBL document CHEMBL4610007, “Design and synthesis of boron-containing diphenylpyrimidines as potent BTK and JAK3 dual inhibitors” (Bioorg Med Chem, 2020)
